Measurements published in patent US20030134869A1, “Novel therapeutic use of nicergoline” (priority 1998, published 2003).

How the values were obtained:
[1] = system: motor neurons in astrocyte/motor neuron co-cultures; test: Survival of motor neurons in astrocyte/motor neuron co-cultures; assay type: cell-based, rats; conditions: for % OF LABELED MOTOR NEURONS: vehicle alone = 100 ± 9.4
Protocol: (§1) The motor neuron-enriched cultures are prepared using the centrifugation method which was described by R. L. SCHNAAR and A. E. SCHAFFNER, J. Neurosci., 1, 204-217 (1981) and modified by W. CAMU and C. E. HENDERSON, J. Neurosci. Methods, 44, 59-70 (1992). The motor neurons are spread, at a density of 2500 cells per plate, on 35 mm culture plates which have previously been coated with laminin/ornithine in accordance with the method of A. G. ESTEVEZ et al., J. Neurosci., 18 (3), 923-931 (1998). The cultures are then maintained in L15 medium (GIBCO BRL) containing sodium bicarbonate (22 mM), conalbumin (0.1 mg/ml), putrescine (0.1 mM), insulin (5 μg/ml), sodium selenite ([…]), glucose (20 mM), progesterone (21 nM), penicillin (100 IU/ml) and streptomycin (100 μg/ml).
The astrocytes are obtained from young, one-day-old rats using the slightly modified method of R. P. SANETO and J. DE VELLIS as described in Neurochemistry a practical approach (A. J. TURNER and H. S. St JOHN) IRL Press, Oxford-Washington D.C., pp. 27-63. The spinal cords are dissected out under sterile conditions and freed of meninges and dorsal ganglia. Five to ten spinal cords are transferred into PBS (phosphate buffer saline) and cut before being incubated at 37° C. for 25 minutes in PBS to which 0.25% trypsin has been added. The enzymatic treatment is stopped by adding 10 ml of Dulbecco's modified Eagle medium (DMEM), to which 10% fetal calf serum (FCS) has been added, and the cells are collected by centrifugation. Another step of mechanical dissociation is performed using the end of a 1 ml pipette. The cells are spread, at a density of 1.5-2×10^6 cells per 25 cm^2 of culture medium, in DMEM containing 10% FCS. After 2 days in vitro, the cultures are fed every day. When a visible monolayer of cells has been completed, the cultures are stirred at 250 rpm for 48 hours and, on the following day, the monolayers are treated with cytosine arabinoside (10^−5 M) for 48 hours. The astrocyte monolayers are then amplified to a density of five on 35 mm culture plates for initially 25 cm^2 culture flasks.
The spinal astrocyte cultures consist, to an extent of more than 98%, of flat, polygonal cells which are immunoreactive for the glial fibrillar acid protein (GFAP). The monolayers are exposed to the product to be tested and then incubated with the motor neuron medium in order to obtain a conditioned culture medium. This medium is transferred and tested at different dilutions in order to determine its effects on neuronal survival.
The cells are fixed in 4% paraformaldehyde and 0.1% glutaraldehyde in PBS (pH 7.4 and at 4° C. for 15 minutes) and in a cold methanolic solution. […]

[2] = system: motor neurons in motor neuron-enriched cultures; test: Neuronal death in motor neuron-enriched cultures in the absence of trophic factor; assay type: cell-based; conditions: p<0.05
Protocol: The effect of nicergoline has therefore been determined in a degeneration model which is induced by depriving cultured motor neurons of neurotrophic factor.
as §1
More than 70% of the cells are immunoreactive for the neurotrophin p75 receptor and the Islet ½ markers for spinal motor neurons. […]
The number of motor neurons is estimated by counting the labeled cells in an area of 0.4-1 cm^2 under a microscope which enlarges 200 times. In all cases, the values are expressed as a percentage of the number of motor neurons which are present in cultures maintained using trophic factors. […]

Structure (SMILES): CO[C@]12C[C@@H](COC(=O)c3cncc(Br)c3)CN(C)[C@@H]1Cc1cn(C)c3cccc2c13 [Nicergoline, (8β)-10-methoxy-1,6-dimethylergoline-8-methanol-5-bromonicotinate]
- % OF LABELED MOTOR NEURONS ([1]; nicergoline 0.1 μM): 115.7 ± 16%
- % OF LABELED MOTOR NEURONS ([1]; nicergoline 1 μM, p < 0.05 vs vehicle): 145.5 ± 24 %
- increase of the survival of motor neurons as compared with cocultures treated with the vehicle alone ([1]; nicergoline 10 μM): 63.7%
- % OF LABELED MOTOR NEURONS ([1]; nicergoline 10 μM, p < 0.01 vs vehicle): 163.7 ± 22.5 %
- increase of the survival of the motor neurons [2]: 13%
